Measured values published in patent US20240226072A1 (Stichting Het Nederlands Kanker Instituut, priority 2022, published 2024).

Key:
[1] = input of human simulation, cited from earlier work
in vivo [2] = settings: male, mouse, po, 25 mg/kg, Tmax
Procedure: (§1) The Jevtana (10 mg/mL) solution contains 0.26 mg/mL polysorbate 80 and 15% (w/v) ethanol, and is adjusted to pH 2-6 with citric acid. […] The stock solution was further diluted 5-fold with water to reach a 2.5 mg/mL dosing solution for oral administration. The vehicle solution only consists of polysorbate 80, ethanol and water (1:1:8, v/v/v). […] All dosing solutions were prepared freshly on the day of the experiment.
(§2) At the termination time point of 24 hours, mice were anesthetized using an isoflurane evaporator with 3% isoflurane with 0.8 L/min air and 0.3 L/min oxygen. A final blood sample was taken using cardiac puncture, using Eppendorf tubes previously prepared with heparin as an anticoagulant. Subsequently, the anesthetized mice were sacrificed by cervical dislocation and the tissues of interest were collected. Brain, liver, spleen, kidney, small intestine, and testis were collected. The small intestinal content (SIC) was separately collected by removing this from the small intestinal tissue, which was subsequently rinsed with saline to remove possibly fecal residue. The blood samples were centrifuged at 9,000×g for 6 minutes at 4° C., and the plasma fraction was isolated and stored at −30° C. until analysis. Brain, liver, spleen, kidney, small intestinal tissue, SIC, and testis were homogenized in a FastPrep-24™ 5G homogenizer (M. P. Biomedicals, Santa Ana, CA, USA) for 1 min with 1, 3, 1, 2, 3, 2, and 1 mL of 2% (w/v) BSA in Milli-Q water, respectively. Until analysis of the samples, they were all stored at −30° C.
(§3) Pharmacokinetic parameters were estimated by non-compartmental analysis using the software package of PK solutions 2.0.2 (SUMMIT, Research Service). The area under the curve (AUC) of the plasma-concentration time curve for all the compounds was calculated using the linear trapezoidal rule without extrapolating to infinity. The peak plasma concentration (Cmax) and the time to reach peak plasma concentration (Tmax) were obtained directly from the individual raw data. For the statistical analysis and the graphs GraphPad Prism 9 (GraphPad Software Inc., La Jolla, CA, USA) was used. The statistics for the comparison of multiple groups were calculated with the one-way analysis of variance (ANOVA), whereas Sidak's post hoc correction was performed. Log-transformation before statistical analysis was applied, when variances within the groups were not homogeneously distributed. Differences were considered statistically significant when P<0.05. All data are presented as geometric mean±SD.
The last parameter is in many cases the most useful, as it takes the overall exposure into account.

[3] = Plasma pharmacokinetics and tissue distribution 2 h after oral cabazitaxel 10 mg/kg with vehicle or 25 mg/kg ritonavir in wild-type, Oatp1a/1b−/−, Oatp1a/1b/2b1−/−, OATP1B1- and OATP1B3-transgenic mice; type: in vivo; settings: ritonavir 25 mg/kg oral, cabazitaxel 10 mg/kg oral; for CLiver / Cbrain / Pbrain, brain accumulation per h / SIC (% of dose), small intestinal content: 2 h; for AUC(0-t) / Cmax / Tmax: male, FVB, mouse, plasma, po, 25 mg/kg; for AUC(0-t): AUC0-[…]
Procedure: All animals were fasted 2 to 3 hours prior to the start of the experiment to minimize variation in absorption after oral administration. […] Subsequently, cardiac puncture was performed with a heparinized needle and syringe collecting a final blood sample. […] All samples were stored at −30° C. until analysis.
Differences were considered statistically significant when P<0.05. All data are presented as geometric mean±SD.

in vivo [4] = settings: male, mouse, po; for AUC(0-t): AUC0-24 h
Procedure: as §1, §2, §3

**Q.** For `CC(C)c1nc(CN(C)C(=O)N[C@H](C(=O)N[C@@H](Cc2ccccc2)C[C@H](O)[C@H](Cc2ccccc2)NC(=O)OCc2cncs2)C(C)C)cs1` [ritonavir], which “IIV CL” value [1] is on record?
**A.** 46.7 CV%

**Q.** And the CL ([1]; source (18))?
**A.** 7.72 L/h

**Q.** What about the “IIV CV” value ([1]; source (18)) of the same compound?
**A.** 12.8 CV%

**Q.** What about the “IIV F” value ([1]; source (18)) of the same compound?
**A.** 52.2 CV%

**Q.** What about the “IIV Vc” value ([1]; source (18)) of the same compound?
**A.** 93.5 CV%

**Q.** What about the “IOV CV” value ([1]; source (18)) of the same compound?
**A.** 22.2 CV%

**Q.** What about the “IOV MAT” value ([1]; source (18)) of the same compound?
**A.** 32.1 CV%

**Q.** And the MAT ([1]; source (18))?
**A.** 8.45 h

**Q.** What about the Q ([1]; source (18)) of the same compound?
**A.** 3.99 L/h

**Q.** What about the V ([1]; source (18)) of the same compound?
**A.** 23 L

**Q.** And the Vp ([1]; source (18))?
**A.** 17.9 L

**Q.** What about the Tmax (in vivo [2]; Cyp3a−/− (FVB background)) of the same compound?
**A.** 2.33 ± 0.82 h

**Q.** And the Tmax (in vivo [2]; wild-type FVB)?
**A.** 2 h

**Q.** And the CLiver ([3]; OATP1B1-transgenic mice)?
**A.** 42478 ± 7201 pmol/g

**Q.** What about the Cbrain ([3]; OATP1B1-transgenic mice) of the same compound?
**A.** 277 ± 96.0 pmol/g

**Q.** And the “Pbrain, brain accumulation per h” value ([3]; OATP1B1-transgenic mice)?
**A.** 0.012 ± 0.002 h⁻¹

**Q.** What about the “SIC (% of dose), small intestinal content” value (“SIC (% of dose)” below) ([3]; OATP1B1-transgenic mice) of the same compound?
**A.** 5.81 ± 3.14 % of dose

**Q.** What about the CLiver ([3]; OATP1B3-transgenic mice) of the same compound?
**A.** 45512 ± 4650 pmol/g

**Q.** What about the Cbrain ([3]; OATP1B3-transgenic mice) of the same compound?
**A.** 249 ± 47.9 pmol/g

**Q.** What about the “Pbrain, brain accumulation per h” value ([3]; OATP1B3-transgenic mice) of the same compound?
**A.** 0.013 ± 0.005 h⁻¹

**Q.** What about the “SIC (% of dose)” value ([3]; OATP1B3-transgenic mice) of the same compound?
**A.** 4.44 ± 2.65 % of dose

**Q.** What about the CLiver ([3]; Oatp1a/1b/2b1−/− mice) of the same compound?
**A.** 38153 ± 8561 pmol/g

**Q.** And the Cbrain ([3]; Oatp1a/1b/2b1−/− mice)?
**A.** 236 ± 82.5 pmol/g

**Q.** What about the “Pbrain, brain accumulation per h” value ([3]; Oatp1a/1b/2b1−/− mice) of the same compound?
**A.** 0.014 ± 0.003 h⁻¹

**Q.** What about the “SIC (% of dose)” value ([3]; Oatp1a/1b/2b1−/− mice) of the same compound?
**A.** 6.03 ± 3.23 % of dose

**Q.** And the CLiver ([3]; Oatp1a/1b−/− mice)?
**A.** 43800 ± 5797 pmol/g

**Q.** And the Cbrain ([3]; Oatp1a/1b−/− mice)?
**A.** 306 ± 45.5 pmol/g

**Q.** What about the “Pbrain, brain accumulation per h” value ([3]; Oatp1a/1b−/− mice) of the same compound?
**A.** 0.014 ± 0.003 h⁻¹

**Q.** What about the “SIC (% of dose)” value ([3]; Oatp1a/1b−/− mice) of the same compound?
**A.** 3.84 ± 2.08 % of dose

**Q.** What about the AUC(0-t) ([3]; OATP1B1-transgenic mice) of the same compound?
**A.** 14.3 ± 2.02 µM·h

**Q.** And the AUC(0-t) ([3]; OATP1B3-transgenic mice)?
**A.** 14.8 ± 1.22 µM·h

**Q.** What about the AUC(0-t) ([3]; Oatp1a/1b/2b1−/− mice) of the same compound?
**A.** 13.1 ± 2.14 µM·h

**Q.** What about the AUC(0-t) ([3]; Oatp1a/1b−/− mice) of the same compound?
**A.** 16.9 ± 3.95 µM·h

**Q.** And the AUC(0-t) ([3]; wild-type mice)?
**A.** 5.96 ± 1.15 µM·h

**Q.** And the Cmax ([3]; OATP1B1-transgenic mice)?
**A.** 8.35 ± 1.3 µM

**Q.** What about the Tmax ([3]; OATP1B1-transgenic mice) of the same compound?
**A.** 1.17 h

**Q.** What about the Cmax ([3]; OATP1B3-transgenic mice) of the same compound?
**A.** 8.67 ± 1.15 µM

**Q.** And the Tmax ([3]; OATP1B3-transgenic mice)?
**A.** 1.33 h

**Q.** And the Cmax ([3]; Oatp1a/1b/2b1−/− mice)?
**A.** 7.74 ± 1.12 µM

**Q.** What about the Tmax ([3]; Oatp1a/1b/2b1−/− mice) of the same compound?
**A.** 1 h

**Q.** What about the Cmax ([3]; Oatp1a/1b−/− mice) of the same compound?
**A.** 11.2 ± 5.21 µM

**Q.** What about the Tmax ([3]; Oatp1a/1b−/− mice) of the same compound?
**A.** 1.21 h

**Q.** And the Cmax ([3]; wild-type mice)?
**A.** 3.62 ± 0.765 µM

**Q.** And the Tmax ([3]; wild-type mice)?
**A.** 0.667 h

**Q.** What about the CLiver ([3]; wild-type mice) of the same compound?
**A.** 44998 ± 6028 pmol/g

**Q.** What about the “Pbrain, brain accumulation per h” value ([3]; wild-type mice) of the same compound?
**A.** 0.010 ± 0.002 h⁻¹

**Q.** What about the “SIC (% of dose)” value ([3]; wild-type mice) of the same compound?
**A.** 3.90 ± 2.22 % of dose

**Q.** What about the AUC(0-t) (in vivo [4]; Cyp3aXAV (human CYP3A in Cyp3a−/−, FVB background), 1 mg/kg) of the same compound?
**A.** 0.000447 ± 0.000766 µM·h

**Q.** What about the AUC(0-t) (in vivo [4]; FVB (wild-type), 1 mg/kg) of the same compound?
**A.** 0.00591 ± 0.0018 µM·h

**Q.** And the Cmax (in vivo [4]; FVB, Cyp3aXAV, 1 mg/kg)?
**A.** 0.000532 ± 0.00108 µM

**Q.** And the Tmax (in vivo [4]; FVB, Cyp3aXAV, 1 mg/kg)?
**A.** 1.38 ± 3.25 h

**Q.** And the AUC(0-t) (in vivo [4]; FVB, Cyp3aXAV, 10 mg/kg)?
**A.** 0.075 ± 0.0188 µM·h

**Q.** And the Cmax (in vivo [4]; FVB, Cyp3aXAV, 10 mg/kg)?
**A.** 0.0829 ± 0.0159 µM

**Q.** And the Tmax (in vivo [4]; FVB, Cyp3aXAV, 10 mg/kg)?
**A.** 0.25 h

**Q.** What about the Cmax (in vivo [4]; FVB, wild-type, 1 mg/kg) of the same compound?
**A.** 0.00576 ± 0.00138 µM

**Q.** And the Tmax (in vivo [4]; FVB, wild-type, 1 mg/kg)?
**A.** 0.33 ± 0.13 h

**Q.** What about the AUC(0-t) (in vivo [4]; FVB, wild-type, 10 mg/kg) of the same compound?
**A.** 1.44 ± 0.529 µM·h

**Q.** What about the Cmax (in vivo [4]; FVB, wild-type, 10 mg/kg) of the same compound?
**A.** 0.749 ± 0.322 µM

**Q.** And the Tmax (in vivo [4]; FVB, wild-type, 10 mg/kg)?
**A.** 0.92 ± 0.2 h
